# Test results taken from ChEMBL document CHEMBL3817840, “Discovery of CNS Penetrant CXCR2 Antagonists for the Potential Treatment of CNS Demyelinating Disorders” (ACS Med Chem Lett, 2016).
# What was measured:
# [1] = target: T1, C-X-C chemokine receptor type 2 (Homo sapiens, UniProt P25025); assay: Antagonist activity at human recombinant Gal4-VP16 fused-CXCR2 assessed as inhibition of CXCL1-mediated lactamase reporter gene expression after overnight incubation
# T1 sequence (P25025 whole entry): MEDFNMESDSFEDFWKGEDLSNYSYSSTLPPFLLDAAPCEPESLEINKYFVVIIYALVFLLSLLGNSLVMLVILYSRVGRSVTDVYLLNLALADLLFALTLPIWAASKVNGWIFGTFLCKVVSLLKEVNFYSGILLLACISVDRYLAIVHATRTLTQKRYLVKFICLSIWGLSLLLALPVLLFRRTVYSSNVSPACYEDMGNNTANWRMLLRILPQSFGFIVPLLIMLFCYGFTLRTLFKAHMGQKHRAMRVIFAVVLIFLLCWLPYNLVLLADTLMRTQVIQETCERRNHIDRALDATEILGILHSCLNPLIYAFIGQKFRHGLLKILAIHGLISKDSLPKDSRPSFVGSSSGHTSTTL
# [2] = (§1) AUC (0 to 4 hrs) in C57BL/6 mouse blood at 2 mg/kg, ip by UPLC/MS/MS analysis; assay type: ADME, organism-based; set-up: dose 2 mg/kg, time < 4 hr, route intraperitoneal; settings: C57BL/6, mouse, blood
# [3] = system: Brain; assay: AUC (0 to 4 hrs) in C57BL/6 mouse brain at 2 mg/kg, ip by UPLC/MS/MS analysis; assay type: ADME, organism-based; set-up: dose 2 mg/kg, time < 4 hr, route intraperitoneal; settings: in vivo
# [4] = Ratio of drug level in C57BL/6 mouse brain to blood at 2 mg/kg, ip; assay type: ADME, organism-based; settings: for Kp: C57BL/6, mouse, brain/blood; for Ratio: mouse, brain, BLD = below limit of detection
# [5] = target: Voltage-gated inwardly rectifying potassium channel KCNH2 (Homo sapiens, UniProt Q12809); assay: Binding affinity to human ERG
# [6] = target: Cytochrome P450 3A4 (Homo sapiens, UniProt P08684); assay: Inhibition of CYP3A4 (unknown origin); assay type: ADME
# [7] = Oral bioavailability in C57BL/6 mouse at 2 mg/kg; assay type: ADME, organism-based; settings: in vivo
# [8] = Cmax in C57BL/6 mouse at 2 mg/kg, po; assay type: ADME, organism-based; set-up: dose 2 mg/kg, route oral; settings: in vivo
# [9] = system: Mus musculus; assay: Dose normalized AUC (0 to infinity) in C57BL/6 mouse at 2 mg/kg, po; assay type: ADME, organism-based; settings: in vivo
# [10] = Half life in C57BL/6 mouse at 1 mg/kg, iv; assay type: ADME, organism-based; settings: in vivo
# [11] = target: T2, Cytochrome P450 1A2 (Homo sapiens, UniProt P05177); assay: Inhibition of CYP1A2 (unknown origin); assay type: ADME
# T2 sequence (P05177 whole entry): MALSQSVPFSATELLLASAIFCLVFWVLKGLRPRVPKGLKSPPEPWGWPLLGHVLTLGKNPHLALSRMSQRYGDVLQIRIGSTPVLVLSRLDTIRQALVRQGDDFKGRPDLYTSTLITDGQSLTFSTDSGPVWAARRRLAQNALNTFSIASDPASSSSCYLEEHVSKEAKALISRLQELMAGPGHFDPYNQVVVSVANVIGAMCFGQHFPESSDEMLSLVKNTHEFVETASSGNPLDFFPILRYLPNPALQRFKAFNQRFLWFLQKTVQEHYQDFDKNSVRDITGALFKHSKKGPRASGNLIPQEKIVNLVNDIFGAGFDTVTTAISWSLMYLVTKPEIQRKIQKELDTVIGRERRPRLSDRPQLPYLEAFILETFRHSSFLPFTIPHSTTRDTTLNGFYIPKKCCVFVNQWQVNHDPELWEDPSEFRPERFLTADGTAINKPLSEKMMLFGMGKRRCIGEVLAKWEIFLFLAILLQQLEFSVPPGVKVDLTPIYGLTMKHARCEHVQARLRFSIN
# [12] = target: Cytochrome P450 2C19 (Homo sapiens, UniProt P33261); assay: Inhibition of CYP2C19 (unknown origin); assay type: ADME
# [13] = Clearance in C57BL/6 mouse blood at 1 mg/kg, iv; assay type: ADME, organism-based
# [14] = Fraction unbound in human plasma; assay type: ADME, cell-free
# [15] = Stability of the compound assessed as GSH conjugate formation; assay type: physicochemical
# [16] = Volume of distribution at steady state in C57BL/6 mouse at 1 mg/kg, iv; assay type: ADME, organism-based; settings: in vivo, read-out: Vdss
# [17] = system: Blood; assay: as §1; assay type: ADME, organism-based; set-up: dose 2 mg/kg, time < 4 hr, route intraperitoneal; settings: mouse, in vivo, 4 h, BLD = below limit of detection
# [18] = target: Cytochrome P450 2C9 (Homo sapiens, UniProt P11712)
# Description: Inhibition of CYP2C9 (unknown origin)
# [19] = target: Cytochrome P450 2D6 (Homo sapiens, UniProt P10635); assay: Inhibition of CYP2D6 (unknown origin); assay type: ADME
# Cytochrome P450 2D6, sequence (P10635 whole entry): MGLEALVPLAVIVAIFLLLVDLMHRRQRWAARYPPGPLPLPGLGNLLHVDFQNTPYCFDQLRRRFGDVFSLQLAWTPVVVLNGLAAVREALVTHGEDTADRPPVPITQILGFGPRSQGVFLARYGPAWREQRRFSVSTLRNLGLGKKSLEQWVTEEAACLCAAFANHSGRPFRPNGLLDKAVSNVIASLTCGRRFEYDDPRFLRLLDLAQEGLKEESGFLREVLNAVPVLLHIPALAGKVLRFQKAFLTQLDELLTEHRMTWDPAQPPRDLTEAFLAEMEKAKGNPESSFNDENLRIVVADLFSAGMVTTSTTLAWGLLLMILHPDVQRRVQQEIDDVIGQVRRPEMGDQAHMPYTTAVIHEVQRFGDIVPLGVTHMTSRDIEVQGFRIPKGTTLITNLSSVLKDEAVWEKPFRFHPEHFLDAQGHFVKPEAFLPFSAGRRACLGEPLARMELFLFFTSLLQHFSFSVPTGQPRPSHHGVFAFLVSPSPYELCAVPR
# Cytochrome P450 2C19, sequence (P33261 whole entry): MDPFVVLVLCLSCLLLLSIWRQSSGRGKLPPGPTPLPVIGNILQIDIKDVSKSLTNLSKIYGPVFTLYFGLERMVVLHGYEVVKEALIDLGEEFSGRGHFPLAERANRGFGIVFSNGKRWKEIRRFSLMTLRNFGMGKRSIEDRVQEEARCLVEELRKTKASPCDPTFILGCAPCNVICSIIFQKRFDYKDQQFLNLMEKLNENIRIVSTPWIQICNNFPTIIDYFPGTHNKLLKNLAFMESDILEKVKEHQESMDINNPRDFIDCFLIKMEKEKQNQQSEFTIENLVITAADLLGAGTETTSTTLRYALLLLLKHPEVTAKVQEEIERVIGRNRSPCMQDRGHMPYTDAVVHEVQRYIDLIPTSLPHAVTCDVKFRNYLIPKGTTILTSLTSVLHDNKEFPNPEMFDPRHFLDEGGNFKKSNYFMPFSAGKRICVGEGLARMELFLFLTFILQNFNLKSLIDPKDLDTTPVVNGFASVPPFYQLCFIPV
# Cytochrome P450 3A4, sequence (P08684 whole entry): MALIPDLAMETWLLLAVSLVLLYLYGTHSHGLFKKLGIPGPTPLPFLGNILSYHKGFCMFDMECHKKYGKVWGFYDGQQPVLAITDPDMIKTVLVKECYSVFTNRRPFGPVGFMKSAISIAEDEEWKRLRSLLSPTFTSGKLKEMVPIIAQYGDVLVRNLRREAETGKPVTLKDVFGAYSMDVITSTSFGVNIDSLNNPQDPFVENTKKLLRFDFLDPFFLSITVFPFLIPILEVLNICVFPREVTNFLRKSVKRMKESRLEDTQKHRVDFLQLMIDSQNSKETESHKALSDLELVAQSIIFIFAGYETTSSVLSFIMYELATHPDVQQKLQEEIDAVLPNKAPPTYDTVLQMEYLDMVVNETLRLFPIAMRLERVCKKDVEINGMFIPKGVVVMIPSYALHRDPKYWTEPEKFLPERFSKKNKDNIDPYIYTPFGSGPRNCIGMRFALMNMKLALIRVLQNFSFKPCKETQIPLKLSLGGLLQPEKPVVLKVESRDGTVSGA
# Cytochrome P450 2C9, sequence (P11712 whole entry): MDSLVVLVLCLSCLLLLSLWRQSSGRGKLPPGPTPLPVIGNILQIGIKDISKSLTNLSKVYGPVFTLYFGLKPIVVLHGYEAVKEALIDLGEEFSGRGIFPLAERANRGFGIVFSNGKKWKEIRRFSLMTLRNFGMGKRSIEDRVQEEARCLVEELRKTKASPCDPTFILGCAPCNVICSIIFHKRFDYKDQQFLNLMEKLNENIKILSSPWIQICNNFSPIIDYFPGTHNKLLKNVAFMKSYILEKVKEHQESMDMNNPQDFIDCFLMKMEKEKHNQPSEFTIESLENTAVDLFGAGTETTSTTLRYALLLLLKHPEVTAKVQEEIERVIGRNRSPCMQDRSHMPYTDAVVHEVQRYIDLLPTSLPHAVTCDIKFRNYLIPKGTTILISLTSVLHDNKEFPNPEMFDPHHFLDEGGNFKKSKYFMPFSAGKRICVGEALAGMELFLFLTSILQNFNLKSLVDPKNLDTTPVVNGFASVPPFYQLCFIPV
# Voltage-gated inwardly rectifying potassium channel KCNH2, sequence (Q12809 whole entry): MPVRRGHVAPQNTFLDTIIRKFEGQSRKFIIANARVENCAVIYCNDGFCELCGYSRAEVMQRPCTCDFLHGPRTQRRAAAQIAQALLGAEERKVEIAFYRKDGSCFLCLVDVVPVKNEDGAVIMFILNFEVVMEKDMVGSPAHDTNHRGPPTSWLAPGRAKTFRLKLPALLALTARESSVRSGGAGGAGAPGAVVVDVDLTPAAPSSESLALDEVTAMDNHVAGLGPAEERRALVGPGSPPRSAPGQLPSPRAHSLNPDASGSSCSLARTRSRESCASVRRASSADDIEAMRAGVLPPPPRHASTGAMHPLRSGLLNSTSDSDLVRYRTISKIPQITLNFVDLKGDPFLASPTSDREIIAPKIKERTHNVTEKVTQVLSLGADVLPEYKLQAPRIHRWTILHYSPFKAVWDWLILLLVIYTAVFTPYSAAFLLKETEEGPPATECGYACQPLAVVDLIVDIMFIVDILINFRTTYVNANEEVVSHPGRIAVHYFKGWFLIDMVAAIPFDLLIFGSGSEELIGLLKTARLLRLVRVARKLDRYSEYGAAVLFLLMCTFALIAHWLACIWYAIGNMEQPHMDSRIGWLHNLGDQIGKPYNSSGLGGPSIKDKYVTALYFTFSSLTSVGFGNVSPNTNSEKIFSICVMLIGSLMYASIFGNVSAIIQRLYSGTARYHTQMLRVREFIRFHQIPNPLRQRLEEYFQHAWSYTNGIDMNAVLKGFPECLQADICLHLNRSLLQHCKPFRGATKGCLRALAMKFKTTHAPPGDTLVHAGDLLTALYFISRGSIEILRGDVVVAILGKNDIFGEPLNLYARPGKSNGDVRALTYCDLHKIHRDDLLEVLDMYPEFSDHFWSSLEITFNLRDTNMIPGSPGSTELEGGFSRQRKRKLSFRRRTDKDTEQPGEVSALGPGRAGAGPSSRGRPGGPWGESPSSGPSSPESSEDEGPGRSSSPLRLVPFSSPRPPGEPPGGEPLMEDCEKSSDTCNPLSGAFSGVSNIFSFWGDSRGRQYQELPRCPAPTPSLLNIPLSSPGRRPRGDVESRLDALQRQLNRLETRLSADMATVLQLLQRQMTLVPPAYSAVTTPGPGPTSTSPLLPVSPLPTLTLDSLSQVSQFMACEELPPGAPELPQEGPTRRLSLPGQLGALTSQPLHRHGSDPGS
IC50 [1],AUC(0-t) at 4 h [2],AUC [3],Kp [4],SMILES,also measured
2 nM,1390 ng·h/mL,111 ng·h/g,0.08,CN1CCC2(CC1)CC(S(=O)(=O)c1c(Cl)ccc(NC(=O)Nc3cccc(F)c3Cl)c1O)C2,–
0.316 nM,2.98 ng·h/mL,1.26 ng·h/g,0.42,O=C(Nc1ccc(Cl)c(S(=O)(=O)C2CCCC2)c1O)Nc1cccc(F)c1Cl,–
1.58 nM,600 ng·h/mL,358 ng·h/g,–,CN1CCC(S(=O)(=O)c2c(Cl)ccc(NC(=O)Nc3cccc(Cl)c3Cl)c2O)CC1,IC50 [5]: > 79400 nM; IC50 [6]: > 10000 nM; bioavailability [7]: 30%; Cmax [8]: 132 ng/mL; AUC/dose [9]: 299 ng·h/mL/mg/kg; half-life [10]: 2 h; IC50 [11]: > 10000 nM; IC50 [12]: > 10000 nM; clearance [13]: 15.6 mL/min/kg; Fu [14]: 0.1%; Stability [15]: Stable; Vd [16]: 2.12 L/kg
1 nM,–,–,–,O=C(Nc1ccc(Cl)c(C(=O)N2CCCC2)c1O)Nc1cccc(F)c1Cl,AUC [17]: BLD; AUC ([3]; BLD = below limit of detection): BLD; Ratio [4]: BLD
0.501 nM,432 ng·h/mL,136 ng·h/g,0.32,CN1CC[C@H](S(=O)(=O)c2c(Cl)ccc(NC(=O)Nc3cccc(F)c3Cl)c2O)C1,–
0.501 nM,463 ng·h/mL,99.1 ng·h/g,0.21,CN1CCC[C@H](S(=O)(=O)c2c(Cl)ccc(NC(=O)Nc3cccc(F)c3Cl)c2O)CC1,–
0.631 nM,290 ng·h/mL,180 ng·h/g,0.62,CC(C)S(=O)(=O)c1c(Cl)ccc(NC(=O)Nc2cccc(Cl)c2Cl)c1O,–
0.398 nM,1480 ng·h/mL,69.3 ng·h/g,0.05,CN1CCC2(CCC(S(=O)(=O)c3c(Cl)ccc(NC(=O)Nc4cccc(F)c4Cl)c3O)CC2)CC1,–
0.501 nM,–,–,–,O=C(Nc1ccc(Cl)c(C(=O)N2CCCCC2)c1O)Nc1cccc(F)c1Cl,AUC [17]: BLD; AUC ([3]; BLD = below limit of detection): BLD; Ratio [4]: BLD
1.26 nM,577 ng·h/mL,164 ng·h/g,0.28,CN1CC[C@H](S(=O)(=O)c2c(Cl)ccc(NC(=O)Nc3cccc(Cl)c3Cl)c2O)C1,IC50 [18]: > 10000 nM; IC50 [6]: > 10000 nM; bioavailability [7]: 26%; Cmax [8]: 216 ng/mL; AUC/dose [9]: 271 ng·h/mL/mg/kg; half-life [10]: 1.9 h; IC50 [11]: > 10000 nM; IC50 [12]: > 10000 nM; IC50 [19]: > 10000 nM; clearance [13]: 15.4 mL/min/kg; Fu [14]: 0.021%; Stability [15]: Stable; Vd [16]: 1.72 L/kg
0.398 nM,1050 ng·h/mL,22.9 ng·h/g,0.02,CN1CC2(CC(S(=O)(=O)c3c(Cl)ccc(NC(=O)Nc4cccc(F)c4Cl)c3O)C2)C1,–
0.316 nM,–,–,–,O=C(Nc1ccc(Cl)c(S(=O)(=O)C2CCCCC2)c1O)Nc1cccc(F)c1Cl,AUC [17]: BLD; AUC ([3]; BLD = below limit of detection): BLD; Ratio [4]: BLD
10 nM,519 ng·h/mL,73 ng·h/g,0.14,C[C@@H]1CN(S(=O)(=O)c2c(Cl)ccc(NC(=O)Nc3cccc(Cl)c3Cl)c2O)C[C@H](C)O1,–
1.58 nM,52.9 ng·h/mL,99 ng·h/g,1.87,CC(C)N1CCN(S(=O)(=O)c2c(Cl)ccc(NC(=O)Nc3cccc(F)c3Cl)c2O)CC1,–
1.26 nM,684 ng·h/mL,244 ng·h/g,–,CCN1CCC(S(=O)(=O)c2c(Cl)ccc(NC(=O)Nc3cccc(F)c3Cl)c2O)CC1,IC50 [18]: > 10000 nM; IC50 [6]: > 10000 nM; bioavailability [7]: 41%; Cmax [8]: 125 ng/mL; AUC/dose [9]: 212 ng·h/mL/mg/kg; half-life [10]: 2.3 h; IC50 [11]: > 10000 nM; IC50 [12]: > 10000 nM; IC50 [19]: > 10000 nM; clearance [13]: 30.8 mL/min/kg; Fu [14]: 0.036%; Vd [16]: 2.82 L/kg
